Measured values from US9969695B2, “N-substituted imidazole carboxylic ester chiral compound containing an ether side chain, its preparation and application” (WEST CHINA HOSPITAL, SICHUAN UNIVERSITY, priority 2013, dated 2018).
Where two headings read alike, the source gives them in different places.

Experiments:
Male SD rats [1] = experiment: ED50 by the sequential method, extinction of rat body-righting reflex; assay type: in vivo; settings: etomidate as Etomidate-Lipuro, extinction of body-righting reflex ≥30 s; for ED50: Rattus norvegicus, read-out: 50% effective dose (ED50)
Protocol: (§1) Male SD rats (250˜300 g) were used as an experimental animal, and 50% effective dose (ED50) was determined by the sequential method. Three compounds were dissolved in a solvent of DMSO, and etomidate was used as the commercially-available formulation (B BRAUN, Etomidate-Lipuro®, 20 mg/10 mL). Based on the initial dose of 1 mg/kg, other dosages were adjusted as the ratio of 0.8, and the ED50 values of the three compounds and etomidate were determined. Extinction time ≥30 s for the rat body-righting reflex was the positive marker while no disappearance of the righting reflex was considered invalid. Based on the experimental results, four cross-points were formed, and the ED50 values were calculated. […] Then, the respective 2ED50 values of the three compounds and etomidate were taken in an equivalent dose, which were administered via the rat tail vein. The preliminary effects were evaluated in the four rat groups, which were given the three compounds of Formulas (I), (IV), (V) and etomidate, respectively, with 10 rats in each group. […] The last time of the Formula (I) compound and etomidate was 5-6 min, but the last time of the Formulas (IV) and (V) compounds was 10-20 min. […] DMSO had no pharmacological effects, and no adverse effects were observed. The onset time, the last time, and the adverse effects (types, incidence rates) induced by the three compounds and etomidate are shown in the following table:
(§2) Male SD rats (250˜300 g) were used as an experimental animal, and 50% effective dose (ED50) was determined by the sequential method. Hydrochlorides of the three compounds were dissolved in the solvent of normal saline, and etomidate was used as the commercially-available formulation (B BRAUN, Etomidate-Lipuro®, 20 mg/10 mL). The initial dose was 1 mg/kg, and the ratio of dosage variation was 0.8, which was applied in the determination of ED50 values of Formula (I) hydrochloride, Formula (I) hydrobromide, Formula (I) trifluoroacetate, and etomidate. Extinction time (≥30 s) of the rat body-righting reflex was the positive marker while no disappearance of the reflex was considered invalid. Based on the experimental results, four cross-points were formed, and then ED50 values were calculated. […] Then, the respective 2ED50 values of the three compounds and etomidate were taken in an equivalent dose, which were administered via the rat tail vein. The preliminary effects were evaluated in the four rat groups, which were given the three compounds of Formulas (I) hydrochloride, Formula (I) hydrobromide, Formula (I) trifluoroacetate, and etomidate, respectively, with 10 rats in each group. […] Palinesthesia time was in arrange of 5-10 min. During the test period, no significant difference was found in the types and the incidence rates of adverse effects in each group. DMSO had no pharmacological effects, and no adverse effect was found. The onset time, the last time, and the types and the incidence rates of adverse effects induced by the three salt compounds and etomidate are shown in the following table: […]

Male SD rats [2] = experiment: Onset time, last time, palinesthesia time and adverse effects at 2ED50 via the rat tail vein; assay type: in vivo; settings: for Incidence of adverse effect: Muscle tremor / Onset time: 10 rats per group; for Last time: disappearance to recovery of body-righting reflex
Protocol: as §1, §2

[3] = system: self-synthesis of adrenocortical hormone; experiment: Increase degree of cortical hormone (cortisol, corticosterone) in blood serum after ACTH stimulation, ELISA; assay type: in vivo; settings: Beagle dogs; for Increase degree of corticosterone / Increase degree of cortisol: 2ED50, dexamethasone baseline, 1 h after ACTH
Protocol: Male Beagle dogs (10±2 kg) were selected as an experimental animal. After administration, the contents of corticosterone and cortisol in the blood serum of the Beagle dogs were determined by the ELISA kit and the enzyme-labelled instrument. The 20 Beagle dogs were divided into five groups, with four dogs in each group. After respective administration of dexamethasone (0.01 mg/kg), the level of adrenal cortex in the dog body was lowered to the baseline, and those levels of corticosterone and cortisol at this time were used as the base value (baseline). […] After 10 min, ACTH (adrenocortical hormone) was given to stimulate and cause an increased level of cortex in the dog body. One hour after administration of ACTH, both corticosterone and cortisol levels in the blood serum of the Beagle dogs were determined, and the ratio of the peak value to the base value of the cortex levels was calculated. This ratio indicated the increase degree of the cortical hormone. A greater degree indicated a less inhibitory effect of the medicine on the cortical hormone. After administration, compounds of Formulas (I), (IV) and (V), DMSO, and the increase degree of the cortical hormone followed by stimulation of ACTH are shown in the following table:
Male Beagle dogs (10±2 kg) were selected as an experimental animal. After administration, the contents of corticosterone and cortisol in the blood serum of the Beagle dogs were determined by the ELISA kit and the enzyme-labelled instrument. The 20 Beagle dogs were divided into five groups, with four dogs in each group. After respective administration of dexamethasone (0.01 mg/kg), the level of adrenal cortex in the dog body was lowered to the baseline, and the levels of corticosterone and cortisol at this time were used as the baseline. Then, the equivalent doses (2ED50) of the compounds of Formula (I) hydrochloride (3.62 mg/kg), hydrobromide (3.86 mg/kg), trifluoroacetate (4.66 mg/kg), the positive control medicine Etomidate-Lipuro® (0.9 mg/kg), and the equal-volume of solvent DMSO were respectively administrated into the dogs of the five groups. After 10 min, ACTH was given to stimulate and cause the cortex levels increase in the dog body. One hour after administration of ACTH, both the cortical hormone levels were determined, and the ratio of the peak value to the baseline of cortex levels was calculated. This ratio indicated the increase degree of the cortical hormone. A greater degree of increase indicated a less inhibitory effect of the medicine on the cortical hormone. After administrations, the three salts of the Formula (I) compound, DMSO, the increase degree of the cortical hormone followed by stimulation of ACTH are shown in the following table: […]

[4] = after one intravenous bolus of etomidate 3 mg/kg, cited from earlier work
11β-hydroxylase = 11β-hydroxylase versus GABAA; cited from earlier work
[5] = Example 9, 2ED50 via tail vein, listed as Formula (I) trifluoroacetate
[6] = Example 9, 2ED50 via tail vein, recovery to full recovery of body-righting reflex
[7] = Example 11, ratio of peak value to baseline
[8] = Example 9, 2ED50 via tail vein, listed as etomidate
[9] = Example 10, ratio of peak value to base value

For COCCOC(=O)c1cncn1[C@H](C)c1ccccc1 [Trifluoroacetate of Formula (I) compound], the “50% effective dose (ED50)” value (Male SD rats [1]; Example 9, salts in normal saline, listed as Formula (I) trifluoroacetate) was 3.61 mg/kg, the “sedative-hypnotic and general anesthetic effects (conclusion in words)” value (Male SD rats [2]; Example 9) was “good sedative-hypnotic and general anesthetic effects” and the “Incidence of adverse effect: Muscle tremor” value (“Incidence of adverse effect” below) (Male SD rats [2]; Example 9, 2ED50 via tail vein) was “(5/10), 50%”. For the same compound, the Onset time (Male SD rats [2]; Example 9, 2ED50 via tail vein) was “Immediate”, the Onset time (Male SD rats [2]; [5]) was “immediate action” and the Last time (Male SD rats [2]; Example 9, 2ED50 via tail vein) was 3.6 ± 1.3 min. The Last time (Male SD rats [2]; [5]) was 4 to 7 min, the Palinesthesia time (Male SD rats [2]; [6]) was 8.2 ± 3.3 min and the “cortical hormone increase after stimulation by ACTH (conclusion in words)” value ([3]; Example 11) was “lower than that in the blank group of the dogs, but obviously higher than that in the positive medicine etomidate group of the dogs”. For the same compound, the “Increase degree of corticosterone” value [3, 7] was 13.64 ± 4.22 and the “Increase degree of cortisol” value [3, 7] was 26.14 ± 13.89.
For CCOC(=O)c1cncn1[C@H](C)c1ccccc1 [Etomidate, reference compound], the ED50 (Male SD rats [1]; Example 8, compounds in DMSO) was 1.14 mg/kg, the ED50 (Male SD rats [1]; Example 9, salts in normal saline) was 1.06 mg/kg and the “sedative-hypnotic and general anesthetic effects (conclusion in words)” value (Male SD rats [2]; Example 8) was “good sedative-hypnotic and general anesthetic effects”. The “Incidence of adverse effect” value (Male SD rats [2]; Example 8, 2ED50 via tail vein) was 70%, the Onset time (Male SD rats [2]; Example 8, 2ED50 via tail vein) was “Immediate” and the Onset time (Male SD rats [2]; Example 8, 2ED50 via tail vein, listed as etomidate) was “immediate action”. For the same compound, the Last time (Male SD rats [2]; Example 8, 2ED50 via tail vein) was 6.1 ± 1.3 min, the Palinesthesia tune (Male SD rats [2]; Example 8, 2ED50 via tail vein, recovery to full recovery of body-righting reflex) was 4.5 ± 1.2 min and the “sedative-hypnotic and general anesthetic effects (conclusion in words)” value (Male SD rats [2]; Example 9) was “good sedative-hypnotic and general anesthetic effects”. The “Incidence of adverse effect” value (Male SD rats [2]; Example 9, 2ED50 via tail vein) was 60%, the Onset time (Male SD rats [2]; Example 9, 2ED50 via tail vein) was “Immediate” and the Onset time (Male SD rats [2]; [8]) was “immediate action”. The Last time (Male SD rats [2]; Example 9, 2ED50 via tail vein) was 5.9 ± 1.5 min, the Last time (Male SD rats [2]; [8]) was 4 to 8 min and the Palinesthesia time (Male SD rats [2]; [6]) was 5.1 ± 1.3 min. The “Increase degree of corticosterone” value [3, 9] was 2.53 ± 0.65, the “Increase degree of cortisol” value [3, 9] was 2.12 ± 0.56 and the “inhibition on cortical hormone (conclusion in words)” value ([3]; Example 10, after stimulation by ACTH) was “significantly inhibit the self-synthesis of adrenocortical hormone”. For the same compound, the “cortical hormone increase after stimulation by ACTH (conclusion in words)” value ([3]; Example 11) was “significantly suppress the self-synthesis of adrenocortical hormone”, the “Increase degree of corticosterone” value [3, 7] was 2.80 ± 0.76 and the “Increase degree of cortisol” value [3, 7] was 2.46 ± 0.87. The “time for the plasma medicine concentration maintaining” value [4] was 8 min, the “time of plasma medicine concentration maintaining above 8 ng/mL” value [4] was “up to 8 h” and the “minimal effective concentration for inhibition of cortical hormone synthesis” value ([4]; plasma) was 8 ng/mL. The “minimal effective concentration of anesthetic effect” value ([4]; plasma) was 110 ng/mL and the “ability of binding to 11β-hydroxylase relative to binding to GABAA acceptor” value (11β-hydroxylase) was 100 times.
